From PubChem BioAssay AID792 (PCMD, 2007)
pIC50: −log10 of the molar value. Records with an inconclusive call do not appear. Active and inactive are the calls of the source. The rule behind the calls is not given here.

Target: S. cerevisiae eIF2B mutant, luciferase reporter luminescence
Test: potency on yeast eIF2B luminescence signal – S. cerevisiae, mutant, wild-type, growth, dose response (AID 792)
[1] = measured here: mutant yeast growth
[2] = S. cerevisiae wild-type, luminescence

SMILES	IC50	pIC50 [1]	pIC50 [2]
Cc1ccc(NC(=O)c2ccc(S(=O)(=O)N3CCCCC3)cc2)cc1	> 100 µM (inactive)	< 4.00	
CCSc1nnc(-c2ccc(S(=O)(=O)NCc3cccs3)cc2)o1	> 100 µM (inactive)	< 4.00	
Cc1ccc2c(c1)N(CC(=O)NCc1cccnc1)C(=O)CO2	> 100 µM (inactive)	< 4.00	
COc1cccc(NC(=O)CN(c2ccc(C)cc2)S(=O)(=O)c2c(C)nn(C)c2C)c1	> 100 µM (inactive)	< 4.00	
CN(C)P(=O)(C(Cl)=C(N1CCCCC1)N1CCCCC1)N(C)C	> 100 µM (inactive)	< 4.00	
CCOC(=O)C1(CCSC)NC(c2ccco2)C2C(=O)N(C)C(=O)C21 (configuration not stated)	> 100 µM (inactive)	< 4.00	
Cc1ccc2nc(/C(C#N)=C\c3ccc(N4CCOCC4)o3)[nH]c2c1	> 100 µM (inactive)	< 4.00	
Cc1cccc(-c2nnc(SCC#N)n2Cc2ccccc2)c1	> 100 µM (inactive)	< 4.00	
COc1ccc(C(=O)CSc2nnc(COc3ccccc3)n2Cc2ccco2)cc1	> 100 µM (inactive)	< 4.00	
CC(=O)/C=C(\C)Nc1ccc(-c2cnc(-c3ccccc3)o2)cc1	inactive	< 4.00	< 4.00
N#Cc1cc2ccccc2nc1SCc1cccnc1	> 100 µM (inactive)	< 4.00	
CCC(Sc1nc2n[nH]c(C)c2c(=N)n1-c1ccc(C)c(Cl)c1)C(=O)N1CCOCC1 (configuration not stated)	> 100 µM (inactive)	< 4.00	
COc1cccc(Oc2cn[nH]c2-c2ccc(OC)cc2O)c1	inactive	4.39	4.36
COc1ccc(S(=O)(=O)N2CCCCC2)cc1C(C)C	> 100 µM (inactive)	< 4.00	
CCOC(=O)C1CCCN(C(=O)c2cc3c(C)nc4ccccc4c3o2)C1 (configuration not stated)	> 100 µM (inactive)	< 4.00	
O=c1/c(=C/c2ccc(O)cc2)sc2n1CCCN=2	inactive	< 4.00	5.68
C=CCSc1nnc2c(n1)OC(c1cccnc1)N(C(C)=O)c1ccccc1-2 (configuration not stated)	> 100 µM (inactive)	< 4.00	
O=C(NC(Cc1ccccc1)C(=O)OCC(=O)N1CCc2ccccc21)c1ccco1 (configuration not stated)	> 100 µM (inactive)	< 4.00	
COCC(=O)NC(c1ccccc1)c1ccccc1	> 100 µM (inactive)	< 4.00	
CN1CCc2nc(SCCOc3ccccc3)c(C#N)cc2C1	> 100 µM (inactive)	< 4.00	
CCn1cc(C(=O)NCC2CCCO2)c(=O)c2cc(S(=O)(=O)N3CCCCC3)ccc21 (configuration not stated)	> 100 µM (inactive)	< 4.00	
COc1ccc(C(=O)COC(=O)CN2C(=O)NC(C)(C)C2=O)cc1OC	> 100 µM (inactive)	< 4.00	
CCc1ccc2oc(-c3cccc(NC(=O)c4cccnc4)c3)nc2c1	> 100 µM (inactive)	< 4.00	
CCC(C)(C(=O)NC1CCCCC1)N(Cc1ccco1)C(=O)c1ccc2c(c1)OCO2 (configuration not stated)	> 100 µM (inactive)	< 4.00	
CCOC(=O)N1CCN(C(=O)COc2cc(=O)n(CC)c3ccccc23)CC1	> 100 µM (inactive)	< 4.00	
O=C(CCNS(=O)(=O)c1ccc2c(c1)CCC(=O)N2)NCc1cccnc1	> 100 µM (inactive)	< 4.00	
COc1ccc(NC(=O)CSc2ncnc3c2cnn3Cc2ccccc2)cc1OC	> 100 µM (inactive)	< 4.00	

SMILES	IC50	pIC50 [1]	pIC50 [2]
O=C(Nc1ccccn1)c1cc2ccccc2o1	inactive	4.25	5.35
CCC(Sc1nc2sc(C(=O)OC)c(C)c2c(=O)n1N)C(=O)NCC1CCCO1 (configuration not stated)	> 100 µM (inactive)	< 4.00	
CCCCOc1ccc(OCCCC)c2c1NC1(N2)C(=O)N(C(C)=O)c2ccccc21	> 100 µM (inactive)	< 4.00	
C=CCn1c(SC2CCOC2=O)nc2sc(CC)cc2c1=O (configuration not stated)	> 100 µM (inactive)	< 4.00	
Cc1nnc2sc(-c3ccncc3)nn12	> 100 µM (inactive)	< 4.00	
Cc1ccc(-c2nnc(COc3cccc(-n4cnnn4)c3)o2)cc1	> 100 µM (inactive)	< 4.00	
COc1ccc(-c2nnn(CC(=O)N(Cc3ccc(F)cc3)C(C(=O)NC3CCCC3)c3ccc(F)cc3)n2)cc1 (configuration not stated)	> 100 µM (inactive)	< 4.00	
CCn1c(CNc2nc3ccccc3n2C(C)C)nc2ccccc21	> 100 µM (inactive)	< 4.00	
Oc1cc(Cc2ccccc2)cnc1CN1CCCCC1	> 100 µM (inactive)	< 4.00	
COc1cc2cc(C(c3nnnn3C3CCCCC3)N(C)C3CCCCC3)c(=O)[nH]c2cc1OC (configuration not stated)	> 100 µM (inactive)	< 4.00	
Cc1cc(C)nc(Nc2n[nH]c(COc3ccc(Cl)cc3)n2)n1	> 100 µM (inactive)	< 4.00	
CCOC(=O)c1c(N)nn(C(C)=O)c1-c1ccccc1	> 100 µM (inactive)	< 4.00	
NC(=O)CSC1=Nc2ccccc2C2=NC(CC(=O)NCc3cccs3)C(=O)N12 (configuration not stated)	> 100 µM (inactive)	< 4.00	
O=c1c(Cl)c(NCCCO)cnn1-c1nc2ccccc2[nH]1	inactive	4.54	4.80
CN(C)CCN1C(=O)C(O)=C(C(=O)c2ccco2)C1c1ccccc1F (configuration not stated)	> 100 µM (inactive)	< 4.00	
Oc1ccccc1-c1nnc(-c2ccc(C(F)(F)F)cc2)o1	> 100 µM (inactive)	< 4.00	
Cc1c(O)c(CN2CCCC2)cc2c1oc(=O)c1ccccc12	> 100 µM (inactive)	< 4.00	< 4.00
CNc1nc2ccccc2n1/N=C/c1cccc(OC)c1OC	> 100 µM (inactive)	< 4.00	
CCC(C)(C)n1nnnc1CN(Cc1cccs1)Cc1cc2cc(OC)ccc2[nH]c1=O	> 100 µM (inactive)	< 4.00	
COc1cccc(-c2nc(N3CCCCC3C)c3ccccc3n2)c1O (configuration not stated)	> 100 µM (inactive)	< 4.00	
C=CCN(C(=O)CCC(=O)O)C1CC(=O)N(c2ccc(OC)cc2)C1=O (configuration not stated)	> 100 µM (inactive)	< 4.00	
Cc1cccc(-n2c(SCC(=O)Nc3nonc3C)nnc2-c2ccoc2C)c1	> 100 µM (inactive)	< 4.00	
CCCCn1nnnc1SCC(=O)N1CCOCC1	> 100 µM (inactive)	< 4.00	
COc1ccc(Nc2oc(COc3cccc(C)c3)nc2C#N)cc1	> 100 µM (inactive)	< 4.00	
CC(NC(=O)Nc1ccc(F)cc1F)c1ccncc1 (configuration not stated)	> 100 µM (inactive)	< 4.00	
CCC(C(=O)NC1CCCC1)N(C(=O)c1snc(C(N)=O)c1N)c1ccc2c(c1)OCCO2 (configuration not stated)	> 100 µM (inactive)	< 4.00	
CCN(C(C)=O)c1nc(CSc2nnc(NC(C)C)s2)cs1	> 100 µM (inactive)	< 4.00	

SMILES	IC50	pIC50 [1]	pIC50 [2]
CC(=O)/C(C(=N)N1CCN(c2cccc(Cl)c2)CC1)=C(\C)O	> 100 µM (inactive)	< 4.00	
COc1cc(NS(=O)(=O)c2ccc3c(c2)n(C)c(=O)n3C)cc(OC)c1	> 100 µM (inactive)	< 4.00	
O=C(NCCc1ccccn1)c1cccc(S(=O)(=O)N2CCCCCC2)c1	> 100 µM (inactive)	< 4.00	
C=CCN1CC(c2nc3ccccc3n2Cc2cccc3ccccc23)CC1=O (configuration not stated)	> 100 µM (inactive)	< 4.00	
COc1ccccc1CNC(=O)CN1CCC(NC(=O)c2ccccc2F)CC1	> 100 µM (inactive)	< 4.00	
COC(=O)c1nn(-c2ccc3c(c2)CCN3C(C)=O)cc1O	inactive	< 4.00	5.44
O=C(Nc1cccnc1)c1ccccc1Oc1ccccc1	> 100 µM (inactive)	< 4.00	
O=C(Nc1nnc(COc2ccc(Cl)cc2)s1)c1cccs1	> 100 µM (inactive)	< 4.00	
COc1ccc(C(=O)/C=C/Nc2ccccn2)cc1	inactive	< 4.00	4.74
Cc1csc(NC(=O)NC2(C(F)(F)F)Oc3ccccc3O2)n1	> 100 µM (inactive)	< 4.00	
CC1Cc2ccccc2N1C(=O)Cn1c(=O)cc(O)c2ccccc21 (configuration not stated)	> 100 µM (inactive)	< 4.00	
Cc1cc(C(=O)Nc2ccccc2C(F)(F)F)no1	> 100 µM (inactive)	< 4.00	
CCC(=O)Nc1c2c(nn1-c1ccc(C)cc1C)CSC2	> 100 µM (inactive)	< 4.00	
CCOC(=O)N1CCN(C(=O)CN(Cc2ccc(Cl)cc2)S(=O)(=O)c2ccc(C)cc2)CC1	> 100 µM (inactive)	< 4.00	
CCOC(=O)CSc1ccc(-c2nc3cc(C)c(C)cc3[nH]2)cn1	> 100 µM (inactive)	< 4.00	
CCOc1ccc2cc(/C=C/C(=O)c3ccco3)c(Cl)nc2c1	> 100 µM (inactive)	< 4.00	
Oc1ccc2ccc3cccc[n+]3c2c1	> 100 µM (inactive)	< 4.00	< 4.00
COc1ccc(S(=O)(=O)N2CCCCC2C(=O)O)cc1OC (configuration not stated)	> 100 µM (inactive)	< 4.00	
Cc1[nH]c(=O)c(C#N)c2c1CSC(C)(C)C2	> 100 µM (inactive)	< 4.00	
Cc1ccc(NC(=O)CN(C)C(=O)CSc2nc3ccccc3o2)cc1	> 100 µM (inactive)	< 4.00	
CC1(C)Cc2c(sc3c2c(=N)n(Cc2ccco2)c(=O)n3Cc2ccc(F)cc2)CO1	> 100 µM (inactive)	< 4.00	
C=CCNc1nc(-c2cccc(OC)c2O)nc2ccccc12	> 100 µM (inactive)	< 4.00	
CCCc1nc(SCC(=O)Nc2cc(C)on2)c2ccccc2n1	> 100 µM (inactive)	< 4.00	
CCn1ncc(Br)c1C(=O)Nc1sc2c(c1C(N)=O)CCC2	> 100 µM (inactive)	< 4.00	
COC(=O)NC(=C(Cl)Cl)S(=O)(=O)c1ccccc1	> 100 µM (inactive)	< 4.00	
